Laboratory results from US8192962B2, “Processes for detecting toxic substances” (Daikin Industries, Ltd., priority 2001, dated 2012).

Test system: Energy system protein genes
Assay: DNA chip mRNA expression in yeast, energy system protein genes (Table 4)
Type: cell-based, Saccharomyces cerevisiae S288C
Outline: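 Values are treated/untreated fluorescence ratios from a whole-genome yeast DNA chip hybridized over 12 hours at 65° C with Cy3- or Cy5-labelled cDNA from poly(A) mRNA. Log-phase S288C yeast in YPD at 25° C had received a single toxic chemical for two hours, dosed to slow growth without killing.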

## C=CC=O [(14), acrolein]
Yeast gene YAL060W
  The level of expressed mRNA in the presence of chemical substance/The level of expressed mRNA in the absence of chemical substance: 0.9
Yeast gene YBL058W, cells incubated two hours with the chemical substance
  The level of expressed mRNA in the presence of chemical substance/The level of expressed mRNA in the absence of chemical substance: 1.3
Yeast gene YBL099W, cells incubated two hours with the chemical substance
  The level of expressed mRNA in the presence of chemical substance/The level of expressed mRNA in the absence of chemical substance: 0.6
Yeast gene YBR001C, cells incubated two hours with the chemical substance
  The level of expressed mRNA in the presence of chemical substance/The level of expressed mRNA in the absence of chemical substance: 1.2
Yeast gene YBR185C, cells incubated two hours with the chemical substance
  The level of expressed mRNA in the presence of chemical substance/The level of expressed mRNA in the absence of chemical substance: 1.7
Yeast gene YBR221C, cells incubated two hours with the chemical substance
  The level of expressed mRNA in the presence of chemical substance/The level of expressed mRNA in the absence of chemical substance: 0.8
Yeast gene YBR299W
  The level of expressed mRNA in the presence of chemical substance/The level of expressed mRNA in the absence of chemical substance: 1.4
Yeast gene YCL040W
  The level of expressed mRNA in the presence of chemical substance/The level of expressed mRNA in the absence of chemical substance: 0.7
Yeast gene YCR012W
  The level of expressed mRNA in the presence of chemical substance/The level of expressed mRNA in the absence of chemical substance: 0.9
Yeast gene YCR046C, cells incubated two hours with the chemical substance
  The level of expressed mRNA in the presence of chemical substance/The level of expressed mRNA in the absence of chemical substance: 1.3
Yeast gene YCR105W, cells incubated two hours with the chemical substance
  The level of expressed mRNA in the presence of chemical substance/The level of expressed mRNA in the absence of chemical substance: 1.9
Yeast gene YDL021W
  The level of expressed mRNA in the presence of chemical substance/The level of expressed mRNA in the absence of chemical substance: 3.7
Yeast gene YDL067C, cells incubated two hours with the chemical substance
  The level of expressed mRNA in the presence of chemical substance/The level of expressed mRNA in the absence of chemical substance: 1.4
Yeast gene YDL078C, cells incubated two hours with the chemical substance
  The level of expressed mRNA in the presence of chemical substance/The level of expressed mRNA in the absence of chemical substance: 0.8
Yeast gene YDL107W, cells incubated two hours with the chemical substance
  The level of expressed mRNA in the presence of chemical substance/The level of expressed mRNA in the absence of chemical substance: 1.5
Yeast gene YDL174C
  The level of expressed mRNA in the presence of chemical substance/The level of expressed mRNA in the absence of chemical substance: 1.1
Yeast gene YDL181W, cells incubated two hours with the chemical substance
  The level of expressed mRNA in the presence of chemical substance/The level of expressed mRNA in the absence of chemical substance: 1.1
Yeast gene YDR001C
  The level of expressed mRNA in the presence of chemical substance/The level of expressed mRNA in the absence of chemical substance: 1.0
Yeast gene YDR050C, cells incubated two hours with the chemical substance
  The level of expressed mRNA in the presence of chemical substance/The level of expressed mRNA in the absence of chemical substance: 1.2
Yeast gene YDR079W, cells incubated two hours with the chemical substance
  The level of expressed mRNA in the presence of chemical substance/The level of expressed mRNA in the absence of chemical substance: 1.5
Yeast gene YDR178W, cells incubated two hours with the chemical substance
  The level of expressed mRNA in the presence of chemical substance/The level of expressed mRNA in the absence of chemical substance: 1.5
Yeast gene YDR231C
  The level of expressed mRNA in the presence of chemical substance/The level of expressed mRNA in the absence of chemical substance: 1.5
Yeast gene YDR298C, cells incubated two hours with the chemical substance
  The level of expressed mRNA in the presence of chemical substance/The level of expressed mRNA in the absence of chemical substance: 1.5
Yeast gene YDR377W, cells incubated two hours with the chemical substance
  The level of expressed mRNA in the presence of chemical substance/The level of expressed mRNA in the absence of chemical substance: 1.4
Yeast gene YDR529C, cells incubated two hours with the chemical substance
  The level of expressed mRNA in the presence of chemical substance/The level of expressed mRNA in the absence of chemical substance: 1.5
Yeast gene YEL024W, cells incubated two hours with the chemical substance
  The level of expressed mRNA in the presence of chemical substance/The level of expressed mRNA in the absence of chemical substance: 1.1
Yeast gene YEL039C, cells incubated two hours with the chemical substance
  The level of expressed mRNA in the presence of chemical substance/The level of expressed mRNA in the absence of chemical substance: 1.4
Yeast gene YER178W
  The level of expressed mRNA in the presence of chemical substance/The level of expressed mRNA in the absence of chemical substance: 0.9
Yeast gene YFL057C
  The level of expressed mRNA in the presence of chemical substance/The level of expressed mRNA in the absence of chemical substance: 23.4
Yeast gene YFR053C
  The level of expressed mRNA in the presence of chemical substance/The level of expressed mRNA in the absence of chemical substance: 0.6
Yeast gene YGL018C, cells incubated two hours with the chemical substance
  The level of expressed mRNA in the presence of chemical substance/The level of expressed mRNA in the absence of chemical substance: 1.2
Yeast gene YGL062W
  The level of expressed mRNA in the presence of chemical substance/The level of expressed mRNA in the absence of chemical substance: 1.2
Yeast gene YGL187C, cells incubated two hours with the chemical substance
  The level of expressed mRNA in the presence of chemical substance/The level of expressed mRNA in the absence of chemical substance: 0.9
Yeast gene YGL191W, cells incubated two hours with the chemical substance
  The level of expressed mRNA in the presence of chemical substance/The level of expressed mRNA in the absence of chemical substance: 1.6
Yeast gene YGL205W, cells incubated two hours with the chemical substance
  The level of expressed mRNA in the presence of chemical substance/The level of expressed mRNA in the absence of chemical substance: 1.0
Yeast gene YGL256W, cells incubated two hours with the chemical substance
  The level of expressed mRNA in the presence of chemical substance/The level of expressed mRNA in the absence of chemical substance: 0.9
Yeast gene YGR043C
  The level of expressed mRNA in the presence of chemical substance/The level of expressed mRNA in the absence of chemical substance: 4.1
Yeast gene YGR062C, cells incubated two hours with the chemical substance, 25° C., YPD medium
  The level of expressed mRNA in the presence of chemical substance/The level of expressed mRNA in the absence of chemical substance: 1.2
Yeast gene YGR087C, cells incubated two hours with the chemical substance
  The level of expressed mRNA in the presence of chemical substance/The level of expressed mRNA in the absence of chemical substance: 0.7
Yeast gene YGR174C, cells incubated two hours with the chemical substance
  The level of expressed mRNA in the presence of chemical substance/The level of expressed mRNA in the absence of chemical substance: 1.6
Yeast gene YGR192C
  The level of expressed mRNA in the presence of chemical substance/The level of expressed mRNA in the absence of chemical substance: 1.0
Yeast gene YGR244C
  The level of expressed mRNA in the presence of chemical substance/The level of expressed mRNA in the absence of chemical substance: 1.2
Yeast gene YGR254W
  The level of expressed mRNA in the presence of chemical substance/The level of expressed mRNA in the absence of chemical substance: 0.6
Yeast gene YHR179W
  The level of expressed mRNA in the presence of chemical substance/The level of expressed mRNA in the absence of chemical substance: 5.8
Yeast gene YIL160C
  The level of expressed mRNA in the presence of chemical substance/The level of expressed mRNA in the absence of chemical substance: 1.5
Yeast gene YIR031C, cells incubated two hours with the chemical substance
  The level of expressed mRNA in the presence of chemical substance/The level of expressed mRNA in the absence of chemical substance: 1.2
Yeast gene YJL052W
  The level of expressed mRNA in the presence of chemical substance/The level of expressed mRNA in the absence of chemical substance: 1.3
Yeast gene YJL121C, cells incubated two hours with the chemical substance
  The level of expressed mRNA in the presence of chemical substance/The level of expressed mRNA in the absence of chemical substance: 0.9
Yeast gene YJL166W, cells incubated two hours with the chemical substance
  The level of expressed mRNA in the presence of chemical substance/The level of expressed mRNA in the absence of chemical substance: 1.9
Yeast gene YJL216C, cells incubated two hours with the chemical substance
  The level of expressed mRNA in the presence of chemical substance/The level of expressed mRNA in the absence of chemical substance: 1.1
Yeast gene YJR009C
  The level of expressed mRNA in the presence of chemical substance/The level of expressed mRNA in the absence of chemical substance: 1.0
